Reference: patent US20230157994A1 (priority 2020, published 2023)
Where “and” joins values, the source holds several entries; their conditions need not be identical. Identical values can stand only once. Like-named read-outs stand apart in the source and are kept apart here.

Experiments:
[1] = test system: neutrophils (DAPI-CD16+, DAPI-CD16+CXCR4-, DAPI-CD16+CXCR4+); conditions: for % of neutrophils' migration decrease with plerixafor vs vehicle in response to COVID-19 serum: DAPI-CD16+CXCR4+ cells
Method: Neutrophils were isolated from 6 patients of the COBRA cohort (COPD and asthma patient cohort). […] Cells were next plated in the upper compartment of a modified Boyden chamber for migration assay in 0.2 mL HBSS, containing 0.5% HSA medium. HBSS, 0.5% HSA or HBSS, 0.5% HSA+sera (10% diluted) from severe COVID-19 patients were added to the bottom compartment of each well. […] Cell identities and counts were analysed by FACS method.
Neutrophils are isolated according to the method described by Hard, et al., (Infiltrated neutrophils acquire novel chemokine receptor expression and chemokine responsiveness in chronic inflammatory lung diseases. J. Immunol. Baltim. Md 1950. 181:8053-8067). Neutrophils were freshly isolated from blood of COPD patients over isotonic Percoll density gradient. The neutrophils were recovered, washed twice with HBSS containing 20 mM HEPES and 0.1% (w/v) BSA and resuspended in HBSS, 20 mM HEPES, and 0.1% (w/v) BSA at a cell concentration of 5×10^5 in 0.2 mL.
Neutrophil migration was assessed using a Boyden chamber assay, using transwell inserts (pore size 8 um). A total of 5x 10^5 neutrophils cells in 0.2 mL HBSS, containing 0.5% HSA were added to the upper compartment of each well. […] HBSS, 0.5% HSA and Sera (10% diluted) from severe COVID-19 patients was added to the bottom compartment of each well.
After neutrophils' recovery from lower chamber, FACS tubes were centrifuged 5 min, 4° C. at 500 g. Fixation and permeabilization of cells were as follow: 0.3 mL of Cytofix/Cytoperm were added for 15 min (tube are protected from light). Next, 400 μL of permeabilization buffer was added and cells were processed for centrifugation for 5 min, 4° C., 400 g. Supernatant was discarded, and cells were processed for antibody staining. Cells were incubated 40 min at 4° C. with anti-CD16 to account for all neutrophils, anti-CXCR4 to specifically account for CXCR4 expressing neutrophils. Next, 400 μL of permeabilization buffer was added, and cells were centrifuged 5 min at 4° C., 400 g. After supernatant was discarded, cells were incubated with appropriate secondary antibody for 40 min at 4° C. Finally, cells were incubated with DAPI at 4° C. After DAPI incubation (to exclude dying cells from FACS counts), 400 μL of PBS 1× were added and cells were centrifuged for 5 min at 4° C., 400 g. Cells were resuspended in 300 μL of PBS 1×. To obtain absolute values of migratory cells, flow cytometric counts for each condition were obtained during a constant predetermined time period (1 min).
Each condition treatment was run in duplicate.

Citrullinated histone H3 = conditions: for effect on level of citrullinated histone H3 / NETosis: RNA virus infected mice, 3 mg/kg/day, versus infected vehicle group
[2] = test system: COVID-19-related ARDS patients; conditions: hypothesis; in combination with best available treatment
Method: Ventilator-free days (VFDs) at 28 days are one of several organ failure-free outcome measures to quantify the efficacy of therapies and interventions. VFDs are typically defined as follows: • a. VFDs=0 if subject dies within 28 days of mechanical ventilation. • b. VFDs=28−x if successfully liberated from ventilation x days after initiation. • c. VFDs=0 if the subject is mechanically ventilated for >28 days.
4 groups of patients (placebo, pleri 10, pleri 20, pleri 40 μg/kg bid) will be planned.

severe COVID-19 patients = conditions: estimate for sample size
From the text: Sample size is based on the following assumptions: • 1. Current estimate of the proportion of patients in ICU with critical stage COVID-19 and requiring mechanical ventilation (50% as per Bichat and Bordeaux CHUs), • 2. […] A two-sided analysis, with α=0.05.

SARS-CoV-2 = conditions: for body weight loss kinetic: versus vehicle mice
ARDS patients = conditions: at days 28; cited from earlier work

c1cc(CN2CCCNCCNCCCNCC2)ccc1CN1CCCNCCNCCCNCC1 [plerixafor]
decrease of CXCR4+ neutrophils migration (mean of 6 patients) [1]: 75.8%±5.9%
migration of CXCR4 negative neutrophils (DAPI-CD16+CXCR4-) [1]: no significant effect
migration of CXCR4 positive neutrophils (DAPI-CD16+CXCR4+) [1]: strongly and reproducibly decreased
serum-induced recruitment of neutrophils total population (DAPI-CD16+) [1]: did not significantly reduce
% of neutrophils' migration decrease with plerixafor vs vehicle in response to COVID-19 serum ([1]; patient Sg3, 25 μg/mL): 86.6%
% of neutrophils' migration decrease with plerixafor vs vehicle in response to COVID-19 serum ([1]; patient Sg87, 25 μg/mL): 72.9%
% of neutrophils' migration decrease with plerixafor vs vehicle in response to COVID-19 serum ([1]; patient Sg88, 25 μg/mL): 75.5%
% of neutrophils' migration decrease with plerixafor vs vehicle in response to COVID-19 serum ([1]; patient Sg89, 25 μg/mL): 70.0%
% of neutrophils' migration decrease with plerixafor vs vehicle in response to COVID-19 serum ([1]; patient Sg92, 25 μg/mL): 77.6%
% of neutrophils' migration decrease with plerixafor vs vehicle in response to COVID-19 serum ([1]; patient Sg95, 25 μg/mL): 72.4%
effect on level of citrullinated histone H3 / NETosis (Citrullinated histone H3): significantly reduced
effect on level of citrullinated histone H3 / NETosis (Citrullinated histone H3; listed as Plerixafor): slightly decreased
Mean Citrullinated Histone H3 in plasma (Citrullinated histone H3; day 7, RNA virus infected, 3 mg/kg/day SC, infected vehicle 2.124, non infected 0.113): 1.428±0.799 absorbance at 450 nm and 1.428 absorbance at 450 nm
increase of VFDs (ventilator-free days at 28 days) [2]: 2 days
decrease of proportion of invasive mechanical ventilation versus placebo (severe COVID-19 patients): 46%
proportion of invasive mechanical ventilation in patients with severe COVID-19 (severe COVID-19 patients; reduced from 50%, 30 μg/kg/hour continuous IV 7 days): 27%
body weight loss kinetic (SARS-CoV-2; 10 mg/kg/day): reduced the mice body weight loss kinetic
body weight loss kinetic (SARS-CoV-2; 10 mg/kg/day, listed as Plerixafor): significant reduction of body weight loss kinetic
time of death (euthanasia at body weight loss superior to 20%) (SARS-CoV-2; 10 mg/kg/day, versus vehicle, Wilcoxon test p<0.05): Significant difference in time of death
average body weight loss (SARS-CoV-2; day 5 post infection, 10 mg/kg/day twice daily, vehicle 20.43%±2.88%): 17.6%±1.28%
fraction of treated mice with improved survival (SARS-CoV-2; lethal dose of SARS-CoV-2): 44,44%
improvement of survival (SARS-CoV-2; lethal dose of SARS-CoV-2, versus vehicle): 20%

Tocilizumab: an anti-IL6 human monoclonal antibody marketed by Genentech under the tradename Actemra for treating rheumatoid arthritis
VFDs (ventilator-free days) (ARDS patients): 14.86+/−5.36
